Experimental data reported in patent US7968097B2, “Identification of Hla-A2-presented T-cell epitopes derived from the oncofoetal antigen-immature laminin receptor protein and uses thereof” (Immatics Biotechnologies GmbH, priority 2005, dated 2011).

Tests used:
[1] = test system: peptide-pulsed 51Cr-labelled T2 cells; assay: Cold target inhibition assay; type: cell-based, human
Text: CTL derived from healthy HLA-A*0201^+ individuals were generated using a protocol described elsewhere (Zeis M, Siegel S, Schmitz M et al. Induction of cytotoxic T lymphocytes against hematologic neoplasms by survivin RNA-transfected dendritic cells. J Immunol. 2003; 170, 5391-5397.). For the induction of autologous OFA/ILR, peptide-specific CTL obtained from patients with AML and CLL, CD8^+ T cells were separated from PBMC using immunomagnetic beads (MACS®, Miltenyi, Bergisch-Gladbach, Germany), cultured with autologous OFA/iLR peptide-pulsed fully matured DC and restimulated with autologous peptide-pulsed PBMC in the presence of IL-2 (1 ng/ml, CellConcepts, Weisskirch, Germany). After at least four weekly restimulations, CTL reactivity was determined in a conventional 4 h ^51Chromium release assay. Cold target inhibition assays and antibody blocking experiments were performed as previously described (Zeis M, Siegel S, Schmitz M et al. Induction of cytotoxic T lymphocytes against hematologic neoplasms by survivin RNA-transfected dendritic cells. J Immunol. 2003; 170, 5391-5397.).
A cold target inhibition assay was performed. To examine whether ILR1-specific T cells lyse ILR1 peptide-pulsed T2 cells specifically and in the context of HLA-A*02, cold target inhibition assays were performed as follows: ^51Cr-labelled T2 cells were loaded with peptide in a concentration of 10 microgram peptide/10^6 T2 cells/ml. A total of 2×10^5 unlabelled, T2 cells, which had equally been loaded with the same or a control peptide, were then added in a volume of 50 microliter AIMV to 10^4 peptide-pulsed, ^51Cr-labelled T2 cells. Effector T cells specific for ILR1 were added and a ^51Cr-release assay was performed as described above.
A cold target inhibition assay was performed as described under “T2+ILR1” above.

peptide-pulsed T2 cells = assay: Lysis of peptide-pulsed T2 target cells by peptide-specific CTL (peptide titration); type: cell-based, human

Row | Sequence | competition of cold targets loaded with the peptide for lysis ([1]; hot target ILR1-peptide-pulsed T2, effectors ILR1-specific CTL, 10 microgram peptide/10^6 T2 cells/ml) | competition of cold targets loaded with the peptide for lysis ([1]; hot target ILR2-peptide-pulsed T2, effectors ILR2-specific CTL) | recognition/lysis of T2 cells pulsed with the peptide (peptide-pulsed T2 cells)
1 | LYLKNYRIA (listed as Homo sapiens) [Survivin, reference compound] | neither peptides irrelevant for ILR1-specific CTL (Survivin and ILR2), nor unloaded T2 cells, which display empty HLA-A*02 molecules on their cell surfaces, compete for lysis | neither peptides irrelevant for ILR2-specific CTL (Survivin and ILR1), nor unloaded T2 cells, which display empty HLA-A*02 molecules on their cell surfaces, compete for lysis | –
2 | ILKEPVHGV [HIV peptide, reference compound] | – | – | not recognized
